The source of these data is patent US5559156A, “Method for treating animals infected with Babesia spp” (Glaxo Wellcome, Inc., priority 1994, dated 1996).

Experiment [1] relates to B-divergens. As to the kind of experiment: Activity against B-divergens in vitro in human red cells. The class given is cell-based. As to conditions: for IC50: read-out: IC50 Human. The method, then:
(§1) Activity against Babesiosis in vitro
(§2) The activity of the test compound against B-divergens in vitro, both in bovine and human red cells was measured and compared with the activities of standard anti-babesials.

Experiment [2] concerns B-divergens. As to the kind of experiment: Activity against B-divergens in vitro in bovine red cells. In kind it is cell-based. As to conditions: Bos taurus, read-out: IC50 Bovine. How it is done: as §1, §2
The test system of experiment [3] is B-divergens. As to conditions: two patients; cited from earlier work.
For a further experiment, the system named is B. divergens. As to the kind of experiment: Activity against B. divergens infection in gerbils, single oral dose at the time of infection. The class given is in vivo. The settings on record: for % Activity / Days to 0.1% Parasitaemia / Days to Redwater / Maximum % Parasitaemia / % Control % Parasitaemia (day 3): single dose. How it is done:
Gerbils, in groups of 5, were injected intraperitoneally with gerbil erythrocytes infected with 10^7 B divergens. At the time of infection, the gerbils were given, per os by stomach tube, a single dose of test compound, diluted in methyl cellulose. The gerbils were assessed for the time to reach 0.1% parasitaemia and the time to reach haemoglobinurea (redwater). The maximum parasitaemia reached and suppression of parasitaemia relative to controls were assessed and the activity of the test compound calculated.

Another experiment has as its system Leishmania donovani. As to the kind of experiment: Activity against Leishmania donovani in vitro in mouse peritoneal macrophages. In kind it is cell-based, Leishmania donovani (in macrophages of CDl mice). How it is done:
Leishmania donovani was routinely maintained in male golden hamsters (Wright'strain). Amastigotes were isolated from the spleen of infected hamsters 6-8 weeks after infection for use in experimental studies.
The procedure of Neal and Croft (Journal of Antimicrobial Chemotherapy 14, 463-475 (1984) was followed. Mouse peritoneal macrophages were isolated from the peritoneal cavity of outbred CDl mice. Macrophages were cultured in Labtek eight-well tissue chamber slides in RPMI 1640 medium plus 10% heat-inactivated foetal calf serum at 37° in a 5% CO2 -air mixture. Cultures were infected with freshly isolated amastigotes 24 hours before the start of drug treatment. Finally, infected macrophages where incubated in the presence of medium containing the test compound for 7 days, medium being replaced on days 1, 3 and 5 after infection.
The compound was tested in a five-fold dilution series from 50 μM with four replicates at each dilution. Fine suspensions of the compound for testing were prepared by dilution with medium of solutions initially prepared in echanol.
The proportion of infected macrophages in Giemsa stained preparations was determined after 7 days exposure to the test compound. The ED50 value was calculated by a sigmoidal analysis.

Another experiment has as its system L. donovani. As to the kind of experiment: Activity against L. donovani in vivo in Balb/c mice. Details: species or system L. donovani (in male Balb/c mice). The settings on record: for % Suppression of Liver Amastigotes: 0.25% cellacol. The method, then:
Male Balb/c mice were infected intravenously with 5×10^6 L. donovani amastigotes obtained as in Example 5. One week after infection mice were randomly divided into groups of 5 and treatment with test compound commenced, using cellacol as the vehicle for the test compound. Four days after the completion of treatment all mice were sacrificed. Their livers were removed, weighted and impression smears were fixed with methanol and […] stained. The activity of the compound was determined from the number of amastigotes/500 liver cells in treated and untreated groups.

Broadly, the IC50 is the concentration at which inhibition is half-maximal. By inhibition is commonly meant the percentage by which the read-out fell short of the control.

As to `N=C(N)c1ccc(OCCCCCOc2ccc(C(=N)N)cc2)cc1` [Pentamidine isethionate], the IC50 in the experiment on B-divergens [1] (in vitro, human red cells) amounted to 456 nM; in the experiment with B-divergens [2] (in vitro, bovine red cells), 360 nM.
`C[n+]1cccc2cc(NC(=O)Nc3ccc4c(ccc[n+]4C)c3)ccc21` [Quinuronium sulphate]: the IC50 in the experiment on B-divergens [1] (in vitro, human red cells) is 96 nM; with B-divergens [2] (in vitro, bovine red cells) it was 34 nM.
For the compound `O=C(Nc1cccc(C2=NCCN2)c1)Nc1cccc(C2=NCCN2)c1` [Imizol], the IC50 turned out to be 310 nM in the experiment on B-divergens [1] (in vitro, human red cells) and 100 nM in the experiment on B-divergens [2] (in vitro, bovine red cells). Moreover, in the experiment on B-divergens [3], the “use in patients to cure B-divergens” value was “used successfully in two patients to cure B-divergens”.
For the compound `O=C1C(O)=C([C@H]2CC[C@H](c3ccc(Cl)cc3)CC2)C(=O)c2ccccc21` [Test compound, 2-[trans-4-(4-chlorophenyl)cyclohexyl]-3-hydroxy-1,4-naphthoquinone], the IC50 worked out at 36.3 nM in the experiment with B-divergens [1] (in vitro, human red cells) and 17.9 nM in the experiment on B-divergens [2] (in vitro, bovine red cells). The “effectiveness in vitro compared with Imizol” value in the experiment with B-divergens [1] (in vitro, Table 1 covers bovine and human red cells) is recorded as “more effective than Imizol in vitro”.
As to `N=C(N)c1cccc(NC(=O)Nc2cccc(C(=N)N)c2)c1` [Amicarbalide isethionate], the concentration for half-maximal inhibition (IC50) was found to be 517 nM with B-divergens [1] (in vitro, human red cells) and 460 nM in the experiment with B-divergens [2] (in vitro, bovine red cells).
Consider `O=C1C(O)=C(C2CCC(c3ccc(Cl)cc3)CC2)C(=O)c2ccccc21` (centres unmarked) [2-[4-(4-chlorophenyl)cyclohexyl]-3-hydroxy-1,4-napthoquinone], for which, in the experiment with B. divergens (0.1 mg/kg per os), the “% Activity” value is listed as 0.0%, the “Days to 0.1% Parasitaemia” value worked out at 1.0 ± 0.0 days, the “Days to Redwater” value stood at 3.0 ± 0.0 days and the “Maximum % Parasitaemia” value was greater than 40%. For the same compound, the “% Control % Parasitaemia (day 3)” value in the experiment with B. divergens (0.1 mg/kg per os) turned out to be 138.7 ± 18.6%. Besides, in the experiment with B. divergens (1.0 mg/kg per os), the “% Activity” value was found to be 86.1%, the “Days to 0.1% Parasitaemia” value came to 2.5 ± 0.57 days, the “Days to Redwater” value was 4.0 ± 0.82 days and the “Maximum % Parasitaemia” value was greater than 40%. The “% Control % Parasitaemia (day 3)” value in the experiment on B. divergens (1.0 mg/kg per os) turned out to be 13.9 ± 4.3%. Also, in the experiment with B. divergens (10.0 mg/kg per os), the “% Activity” value was determined as 100%, the “Days to 0.1% Parasitaemia” value was 5.6 ± 2.5 days, the “Days to Redwater” value worked out at 9.2 ± 1.8 days and the “Maximum % Parasitaemia” value is on record as 4.02%. For the same compound, the “% Control % Parasitaemia (day 3)” value in the experiment with B. divergens (10.0 mg/kg per os) was 0.0%. For the same compound, in the experiment with B. divergens (50.0 mg/kg per os), the “% Activity” value was 100%, the “Days to 0.1% Parasitaemia” value was greater than 10.0 days, the “Days to Redwater” value is greater than 10.0 days and the “Maximum % Parasitaemia” value stood at 0.0%. The “% Control % Parasitaemia (day 3)” value in the experiment with B. divergens (50.0 mg/kg per os) turned out to be 0.0%. Also, in the experiment on B. divergens (per os), the “activity in vivo against B. divergens in gerbils” value was “active in vivo against B. divergens in gerbils”.
Regarding `O=C1C(O)=C(C2CCC(c3ccc(Cl)cc3)CC2)C(=O)c2ccccc21` (mixture of isomers) [2-[4-(4-chlorophenyl)cyclohexyl]-3-hydroxy-1,4-naphthoquinone], in the experiment on Leishmania donovani (50 μM), the “activity against L. donovani in vitro” value was “active at 50 μM concentration against L. donovani”. This compound returned an inhibition at 0.4 µM in the experiment on Leishmania donovani (Leishmania donovani, Peritoneal macrophage, 168 h, 0.4 μM, 7 days) of 6%. The same compound had an inhibition at 2 µM in the experiment with Leishmania donovani (Leishmania donovani, Peritoneal macrophage, 168 h, 2 μM, 7 days) of 0%. Also, the inhibition at 10 µM in the experiment on Leishmania donovani (Leishmania donovani, Peritoneal macrophage, 168 h, 10 μM, 7 days) is 14.7%. This compound showed an inhibition at 50 µM in the experiment on Leishmania donovani (Leishmania donovani, Peritoneal macrophage, 168 h, 50 μM, 7 days) of 64.8%. In addition, in the experiment with Leishmania donovani (Leishmania donovani, Peritoneal macrophage, 168 h, 7 days exposure, sigmoidal analysis, P95% limits in brackets, read-out: ED50 [P95% limits]), the EC50 is 29500 nM. The “% Suppression of Liver Amastigotes” value with L. donovani (100 mg/kg/day × 5, Oral) is 0%; in the experiment on L. donovani (100 mg/kg/day × 5, Subcutaneous), 30.5%. For the same compound, the “activity against L. donovani in vivo” value in the experiment on L. donovani (subcutaneous) is “active when administered subcutaneously”.
In the case of `CC[n+]1c(-c2ccccc2)c2cc(N)ccc2c2ccc(N)cc21` [Ethidium bromide], the IC50 in the experiment with B-divergens [1] (Homo sapiens) was found to be 69 nM; with B-divergens [2], 47 nM.
